Assay results: US20250145608A1, “KRAS DEGRADING COMPOUNDS COMPRISING ANNULATED 2-AMINO-3-CYANO THIOPHENES” (Boehringer Ingelheim Int'l GmbH Corp., priority 2021, published 2025)
Where two headings read alike, the source gives them in different places.

Columns and labels:
Type in all cases: cell-based
NCI-H358 cells = experiment: NCI-H358 CTG proliferation assay (120 h) (NSCLC, G12C); details: Homo sapiens
Protocol: NCI-H358 CTG Proliferation Assay (120 h) (NSCLC, G12C)
NCI-H358 cells (ATCC No. CRL-5807) are dispensed into white bottom opaque 96 well plates (Perkin Elmer cat no. 5680) at a density of 2000 cells per well in 100 μL RPMI-1640 ATCC-Formulation (Gibco #A10491)+10% FCS (fetal calf serum) (assay 1) or into black 384-well plates, flat and clear bottom (Greiner, PNr. 781091) at a density of 200 cells per well in 60 μl RPMI-1640 ATCC-Formulation (Gibco #A10491)+10% FCS (fetal calf serum) (assay 2). […] Compounds (10 mM stock in DMSO) are added at logarithmic dose series using the HP Digital Dispenser D300 (Tecan) (assay 1) or the ECHO acoustic liquid handler system (Beckman Coulter) (assay 2), normalizing for added DMSO and including DMSO controls. For the TO time point measurement, untreated cells are analyzed at the time of compound addition. Plates are incubated for 120 h, and cell viability is measured using CellTiter-Glo luminescent cell viability reagent (Promega product code G7570). Viability (stated as percent of control) is defined as relative luminescence units RLU of each well divided by the RLU of cells in DMSO controls. IC50 values are determined from viability measurements by non-linear regression using a four parameter model.

KRAS(G12D) = target: T1, KRAS(G12D) (Homo sapiens, UniProt P01116, G12D); experiment: HiBit degradation assay in GP5d-HiBit-KRAS(G12D) cells (18 h; DC50, Dmax)
T1 construct: introduced immediately downstream of the initiating Methionine codon of the endogenous KRAS locus; host or cells: GP5d-HiBit-KRAS(G12D), a CRISPR knock-in at the endogenous locus
Protocol: A HiBit protein detection tag (amino acid sequence […], Seq ID No 1) was introduced immediately downstream of the initiating Methionine codon of the endogenous KRAS locus (Ensembl gene ID ENSG00000133703.7) of GP5d cells (ECACC Cat. No. 95090715) by CRISPR-based genome engineering using a KRAS(G12D) mutant donor construct encoding the HiBit tag. […] Correct modification of the KRAS locus was assessed by PCR-based genotyping and Sanger sequencing of the isolated PCR products. The resulting cell line is referred to as GP5d-HiBit-KRAS(G12D).
To assess PROTAC-mediated degradation of KRAS(G12D), GP5d-HiBit-KRAS(G12D) cells were seeded at 25000 cells per well in 100 μL Dulbecco's Modified Eagle medium (Sigma cat. no. D6429) supplemented with 10% fetal calf serum into white bottom opaque 96 well plates (Perkin Elmer cat no. 5680). Plates were incubated at 37° C., 5% CO2 in a humidified incubator over night to allow the cells to adhere. […] Plates were further incubated at 37° C. for 18 hours. Following incubation, 100 μL per well Promega Nano-Glo HiBit lytic detection reagent mix (Promega Nano-Glo HiBit Lytic Detection System #N3050), prepared according to the manufacturer's instructions in the kit, were added. To allow for adequate cell lysis, plates were incubated on an orbital shaker for 15 min and further incubated 30 min at room temperature. Upon completion of cell lysis, luminescence was measured using an Envision plate reader using the Ultrasensitive Luminescence Protocol for 96 well plates. Luminescence levels were normalized by the values obtained with DMSO-treated samples and plotted as percent of DMSO control. DC50 values were computed using a four parametric logistic model. Dmax values represent the maximal extent of degradation observed and is stated as percent of control (% Ctrl.) treatments. DC50 and Dmax are reported in Table 64 for representative compounds of the invention.

GP5d cells = experiment: GP5d cell proliferation assay (colorectal cancer, G12D), 5 days; details: Homo sapiens, 120 h
Protocol: GP5d Cell Proliferation Assay (Colorectal Cancer, G12D)
(§1) GP5d cells (ECACC 95090715) are dispensed into white bottom opaque 96 well plates at a density of 5000 cells per well in 100 μL DMEM (BioWhittaker, Cat #BE12-605F) supplemented with 10% FCS. […] Compounds (10 mM stock in DMSO) are added at logarithmic dose series using the HP Digital Dispenser D300 (Tecan), normalizing for added DMSO. For the TO time point measurement, untreated cells are analysed at the time of compound addition. Plates are incubated for 5 days, and cell viability is measured using CellTiter-Glo luminescent cell viability reagent (Promega, Cat. No G7570). Viability (stated as percent of control) is defined as relative luminescence units RLU of each well divided by the RLU of cells in DMSO controls. IC50 values were computed from relative viability values using a four parametric logistic model.

SW620 cells = experiment: SW620 cell proliferation assay (colorectal cancer, G12V), 5 days; details: Homo sapiens, SW-620, 120 h
Protocol: SW620 Cell Proliferation Assay (Colorectal Cancer, G12V)
as §1, with “SW620” for “GP5d”, “(ATCC CCL-227)” for “(ECACC 95090715)”, “plates (Perkin Elmer cat no. 5680)” for “plates”, “2000” for “5000”

[1] = assay 1, read-out: H358 (assay 1) IC50
[2] = assay 2, read-out: H358 (assay 2) IC50

T1 sequence (P01116 1-188 isoform P01116-2 G12D): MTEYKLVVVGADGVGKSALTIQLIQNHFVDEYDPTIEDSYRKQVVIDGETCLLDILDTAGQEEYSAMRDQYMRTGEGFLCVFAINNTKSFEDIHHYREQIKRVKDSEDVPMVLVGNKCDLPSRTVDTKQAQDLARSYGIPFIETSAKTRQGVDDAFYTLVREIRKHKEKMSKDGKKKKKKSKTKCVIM

Row | SMILES | IC50 (NCI-H358 cells; [1]) [nM] | IC50 (NCI-H358 cells; [2]) [nM] | DC50 (KRAS(G12D)) [nM] | Dmax 18 h (KRAS(G12D)) [% Ctrl] | IC50 (GP5d cells) [nM] | IC50 (SW620 cells) [nM]
1 | Cc1ncsc1-c1ccc(CNC(=O)[C@@H]2C[C@@H](O)CN2C(=O)[C@H](c2cc(OCCCCN3CCCN(c4nccc(-c5noc([C@@]6(C)CCCc7sc(N)c(C#N)c76)n5)n4)[C@@H](C)C3)no2)C(C)C)cc1 (single isomer, unassigned) [I-26] | 485 | 435 | 101 | 77 | 133 | 265
2 | Cc1ncsc1-c1ccc([C@@H](NC(=O)[C@@H]2C[C@@H](O)CN2C(=O)[C@@H](C(C)C)n2cc(OCCCCN3CCCN(c4nccc(-c5noc([C@@]6(C)CCCc7sc(N)c(C#N)c76)n5)n4)[C@@H](C)C3)nn2)[C@H](C)O)cc1 (single isomer, unassigned) [I-40] | – | 2720 | 970 | 61 | – | –
3 | Cc1ncsc1-c1ccc([C@@H](NC(=O)[C@@H]2C[C@@H](O)CN2C(=O)[C@@H](C(C)C)n2cc(OCCCN3CCCN(c4nccc(-c5noc([C@@]6(C)CCCc7sc(N)c(C#N)c76)n5)n4)[C@@H](C)C3)nn2)[C@H](O)C(C)C)cc1 (single isomer, unassigned) [I-42] | – | 1920 | 462 | 74 | – | –
4 | Cc1ncsc1-c1ccc([C@@H](NC(=O)[C@@H]2C[C@@H](O)CN2C(=O)[C@@H](C(C)C)n2cc(OCCCCN3CCCN(c4nccc(-c5noc([C@@]6(C)CCCc7sc(N)c(C#N)c76)n5)n4)[C@@H](C)C3)nn2)[C@H](O)C(C)C)cc1 (single isomer, unassigned) [I-44] | – | 604 | 49.7 | 88 | – | –
5 | Cc1ncsc1-c1ccc(CNC(=O)[C@@H]2C[C@@H](O)CN2C(=O)C(c2cc(OCCCN3CCCN(c4nccc(-c5noc([C@@]6(C)CCCc7sc(N)c(C#N)c76)n5)n4)[C@@H](C)C3)no2)C(C)C)cc1 (some centres unmarked) [I-1] | 151 | 96.5 | 6.4 | 94 | 22.2 | 27.3
6 | Cc1ncsc1-c1ccc(CNC(=O)[C@@H]2C[C@@H](O)CN2C(=O)C(c2cc(OCCN3CCCN(c4nccc(-c5noc([C@@]6(C)CCCc7sc(N)c(C#N)c76)n5)n4)[C@@H](C)C3)no2)C(C)C)cc1 (some centres unmarked) [I-2] | 2930 | – | 263 | 84 | ≥ 9000 | 598
7 | Cc1ncsc1-c1ccc(CNC(=O)[C@@H]2C[C@@H](O)CN2C(=O)C(c2cc(OCCCCN3CCCN(c4nccc(-c5noc([C@@]6(C)CCCc7sc(N)c(C#N)c76)n5)n4)[C@@H](C)C3)no2)C(C)C)cc1 (some centres unmarked) [I-3] | 66 | 60.7 | 2.7 | 91 | 6.14 | 13.1
8 | Cc1ncsc1-c1ccc(CNC(=O)[C@@H]2C[C@@H](O)CN2C(=O)C(c2cc(OCCCCN3CCCN(c4nccc(-c5noc([C@@]6(C)CCCc7sc(N)c(C#N)c76)n5)n4)[C@@H](C)C3)no2)C(C)C)cc1F (some centres unmarked) [I-5] | 117 | 58.4 | 6.5 | 92 | 13.8 | 47.9
9 | CC(C)C(C(=O)N1C[C@H](O)C[C@H]1C(=O)NCc1ccc(Br)cc1)c1cc(OCCCCN2CCCN(c3nccc(-c4noc([C@@]5(C)CCCc6sc(N)c(C#N)c65)n4)n3)[C@@H](C)C2)no1 (some centres unmarked) [I-7] | 480 | 180 | 11 | 89 | 23.4 | 55.9
10 | Cc1ncsc1-c1ccc(CNC(=O)[C@@H]2C[C@@H](O)CN2C(=O)C(c2cc(OCCCCCCN3CCCN(c4nccc(-c5noc([C@@]6(C)CCCc7sc(N)c(C#N)c76)n5)n4)[C@@H](C)C3)no2)C(C)C)cc1 (some centres unmarked) [I-8] | 725 | 136 | 11.4 | 86 | 90.2 | 50.4
11 | Cc1cc(CNC(=O)[C@@H]2C[C@@H](O)CN2C(=O)C(c2cc(OCCCCN3CCCN(c4nccc(-c5noc([C@@]6(C)CCCc7sc(N)c(C#N)c76)n5)n4)[C@@H](C)C3)no2)C(C)C)ccc1-c1scnc1C (some centres unmarked) [I-10] | 265 | 203 | 15.4 | 91 | 39.3 | 115
12 | Cc1ncsc1-c1ccc(CNC(=O)[C@@H]2C[C@@H](O)CN2C(=O)C(c2cc(OCCOCCN3CCCN(c4nccc(-c5noc([C@@]6(C)CCCc7sc(N)c(C#N)c76)n5)n4)[C@@H](C)C3)no2)C(C)C)cc1 (some centres unmarked) [I-14] | – | 843 | 76 | 80 | – | –
13 | Cc1ncsc1-c1ccc(CNC(=O)[C@@H]2C[C@@H](O)CN2C(=O)C(c2cc(OC/C=C/CN3CCCN(c4nccc(-c5noc([C@@]6(C)CCCc7sc(N)c(C#N)c76)n5)n4)[C@@H](C)C3)no2)C(C)C)cc1 (some centres unmarked) [I-15] | – | 122 | 9.8 | 90 | – | –
14 | CC(C)C(C(=O)N1C[C@H](O)C[C@H]1C(=O)NCc1ccc(-n2cncn2)cc1)c1cc(OCCCCN2CCCN(c3nccc(-c4noc([C@@]5(C)CCCc6sc(N)c(C#N)c65)n4)n3)[C@@H](C)C2)no1 (some centres unmarked) [I-17] | – | 89.5 | 3.3 | 93 | – | –
15 | Cc1ncsc1-c1ccc(CNC(=O)[C@@H]2C[C@@H](O)CN2C(=O)C(c2cc(OCCCN3CCCN(c4ccnc(-c5noc([C@@]6(C)CCCc7sc(N)c(C#N)c76)n5)n4)[C@@H](C)C3)no2)C(C)C)cc1 (some centres unmarked) [I-21] | – | 81.3 | 41.1 | 90 | – | –
16 | Cc1ncsc1-c1ccc(CNC(=O)[C@@H]2C[C@@H](O)CN2C(=O)C(c2cc(OCCCCN3CCCN(c4ccnc(-c5noc([C@@]6(C)CCCc7sc(N)c(C#N)c76)n5)n4)[C@@H](C)C3)no2)C(C)C)cc1 (some centres unmarked) [I-22] | – | 97.5 | 48.8 | 92 | – | –
17 | Cc1ncsc1-c1ccc([C@H](CCOP(=O)(O)O)NC(=O)[C@@H]2C[C@@H](O)CN2C(=O)[C@H](C(C)C)n2cc(OCCCCN3CCCN(c4nccc(-c5noc([C@@]6(C)CCCc7sc(N)c(C#N)c76)n5)n4)[C@@H](C)C3)nn2)cc1 [I-39] | – | 57 | 7.7 | 87 | – | –
